Activity data for 2 molecules are collected here from ChEMBL document CHEMBL1145657, “Chemistry of Acronycine I. Carbon- 13 NMR Studies of Acronycine and Related Compounds” (J Nat Prod, 1983).

The structures appear in SMILES notation. Calls of active or inactive are those of the source. The rule behind the calls is not given here.

This assay relates to KB. Briefly: Cytotoxicity against human KB cells. The format is functional, cell-based.

Consider `Cn1c2ccccc2c(=O)c2c(O)cc3c(c21)C=CC(C)(C)O3`, for which the result was inactive.

For the molecule `Cn1c2ccccc2c(=O)c2c(O)cc3c(c21)CCC(C)(C)O3`, the outcome was inactive.
